Results on one substance are retold here after patent US11633370B2, “Use of scavengers of reactive gamma-ketoaldehydes to extend cell lifespan and healthspan” (Vanderbilt University, priority 2016, dated 2023).

The target in the test is T1, recombinant human SIRT1 (Homo sapiens, UniProt Q96EB6).
T1 construct: purchased R&D Systems, Biotechne
T1 sequence (Q96EB6 1-747): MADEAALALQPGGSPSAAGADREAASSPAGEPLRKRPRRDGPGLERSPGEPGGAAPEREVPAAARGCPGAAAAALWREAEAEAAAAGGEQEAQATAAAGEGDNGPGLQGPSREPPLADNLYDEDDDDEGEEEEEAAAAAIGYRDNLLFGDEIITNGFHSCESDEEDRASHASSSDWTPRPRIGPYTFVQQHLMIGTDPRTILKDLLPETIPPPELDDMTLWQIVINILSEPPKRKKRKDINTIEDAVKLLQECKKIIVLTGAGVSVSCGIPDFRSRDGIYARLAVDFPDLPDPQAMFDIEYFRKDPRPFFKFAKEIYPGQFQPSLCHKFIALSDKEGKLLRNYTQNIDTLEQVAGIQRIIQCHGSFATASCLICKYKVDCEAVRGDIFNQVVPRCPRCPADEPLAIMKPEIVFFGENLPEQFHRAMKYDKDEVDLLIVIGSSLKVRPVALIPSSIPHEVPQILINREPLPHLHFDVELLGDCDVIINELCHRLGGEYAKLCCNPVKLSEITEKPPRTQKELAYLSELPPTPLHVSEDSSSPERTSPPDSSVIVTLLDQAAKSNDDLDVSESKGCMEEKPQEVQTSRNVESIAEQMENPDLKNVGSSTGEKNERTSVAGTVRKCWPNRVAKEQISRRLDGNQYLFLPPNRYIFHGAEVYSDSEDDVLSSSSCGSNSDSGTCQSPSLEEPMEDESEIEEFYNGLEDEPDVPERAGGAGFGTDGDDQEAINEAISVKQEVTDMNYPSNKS
Nature of the test: NAD+-dependent deacetylation bioluminescence assay (SIRT-Glo). To be noted: Sirt-Glo luminescence assay, three independent experiments; read-out: IC50, inhibition of deacetylase activity. The format is biochemical. The protocol: Though SA treatment should prevent IsoK adduct formation on many different protein targets, and many of these proteins could have some impact on lifespan and healthspan, the present inventors determined that there would be specific proteins of particular importance in mediating SA's beneficial effects. Specifically, the present inventors recognized that SIR-2.1 would be one of these “high value targets” for several reasons. […] Recombinant human SIRT1 was incubated with increasing concentrations of synthetically pure IsoK, and enzymatic deacetylase activity was assessed using the luminescence based Sirt-Glo assay (Promega).
Relative activity of the NAD+-dependent histone deacetylase (HDAC) class III enzymes (sirtuins) was measured using the SIRT-Glo™ Assay and Screening System (Promega Corporation, Madison, Wis.) according to the manufacturer's instructions with minor modifications. […] Deacetylation of the peptide substrate is measured using a coupled enzymatic system with a protease in the reagent provided and then cleaves the luminogenic peptide to liberate aminoluciferin. Free aminoluciferin can be quantified using the Ultra-Glo™ firefly luciferase reaction to produce a stable, persistent emission of light. […] 15-E2-IsoK was synthesized by the method of Armanath et al. Luminescence was detected by a microplate reader (FLUOstar Optima microplate reader, BMG Labtechnologies).

On to 15-E2-IsoK, for which the IC50 was determined as 97.8 µM.

The term IC50 denotes the concentration that inhibits the measured activity by half.
